Laboratory results from PMC6044720 (ACS Omega, 2018).

How the values were obtained:
[1] = test system: Swiss albino mice; assay: Formalin-induced hyperalgesia; format: in vivo; conditions: for number of flinching in the inflammatory phase compared to control group: 10 mg kg^–1 i.p.; for inhibition in vivo at 10 mg/kg: Mus musculus, ip, read-out: % inhibition of algesia (analgesic effect), 10 mg kg^–1 i.p. 30 min before formalin, Swiss albino mice
[2] = Solubility observations; format: physicochemical; conditions: enzyme immunoassay medium, in words
[3] = In vivo pharmacokinetic study; parameters: species or system rat
[4] = test system: Swiss albino mice; assay: Acute oral toxicity, 14 days; format: in vivo
[5] = molecular target: COX-1 (Homo sapiens, UniProt P23219); assay: Human whole blood COX-1 assay: calcium ionophore; format: cell-based; conditions: for effect on ionophore-stimulated TXB2 production: 1 μM, in words; for TXB2, +calcium ionophore: compound final concn 1 μM, control 2.00
Chain of COX-1 (P23219 24-599): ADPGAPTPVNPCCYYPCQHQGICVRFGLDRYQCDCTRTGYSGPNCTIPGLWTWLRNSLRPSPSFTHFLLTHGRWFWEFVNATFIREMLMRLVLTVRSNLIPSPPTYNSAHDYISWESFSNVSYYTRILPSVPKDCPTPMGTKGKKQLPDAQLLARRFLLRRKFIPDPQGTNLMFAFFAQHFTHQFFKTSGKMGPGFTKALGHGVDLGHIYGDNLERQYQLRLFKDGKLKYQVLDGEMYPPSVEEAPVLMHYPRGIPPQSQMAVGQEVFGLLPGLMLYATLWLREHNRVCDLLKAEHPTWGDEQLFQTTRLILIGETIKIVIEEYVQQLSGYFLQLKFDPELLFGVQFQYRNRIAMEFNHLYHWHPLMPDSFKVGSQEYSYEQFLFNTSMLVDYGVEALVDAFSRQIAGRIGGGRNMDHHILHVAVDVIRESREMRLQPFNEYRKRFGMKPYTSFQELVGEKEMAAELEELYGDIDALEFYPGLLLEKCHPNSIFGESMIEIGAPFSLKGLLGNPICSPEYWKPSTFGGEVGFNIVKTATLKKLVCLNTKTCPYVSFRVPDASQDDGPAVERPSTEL

[6] = molecular target: T1, COX-2 (Homo sapiens, UniProt P35354); assay: Human whole blood COX-2 assay: LPS-stimulated PGE2 production; format: cell-based; conditions: for effect on PGE2 production in LPS-stimulated blood: 1 μM, in words; for PGE2, +LPS: compound final concn 1 μM, control 1.98
T1 sequence (P35354 18-604): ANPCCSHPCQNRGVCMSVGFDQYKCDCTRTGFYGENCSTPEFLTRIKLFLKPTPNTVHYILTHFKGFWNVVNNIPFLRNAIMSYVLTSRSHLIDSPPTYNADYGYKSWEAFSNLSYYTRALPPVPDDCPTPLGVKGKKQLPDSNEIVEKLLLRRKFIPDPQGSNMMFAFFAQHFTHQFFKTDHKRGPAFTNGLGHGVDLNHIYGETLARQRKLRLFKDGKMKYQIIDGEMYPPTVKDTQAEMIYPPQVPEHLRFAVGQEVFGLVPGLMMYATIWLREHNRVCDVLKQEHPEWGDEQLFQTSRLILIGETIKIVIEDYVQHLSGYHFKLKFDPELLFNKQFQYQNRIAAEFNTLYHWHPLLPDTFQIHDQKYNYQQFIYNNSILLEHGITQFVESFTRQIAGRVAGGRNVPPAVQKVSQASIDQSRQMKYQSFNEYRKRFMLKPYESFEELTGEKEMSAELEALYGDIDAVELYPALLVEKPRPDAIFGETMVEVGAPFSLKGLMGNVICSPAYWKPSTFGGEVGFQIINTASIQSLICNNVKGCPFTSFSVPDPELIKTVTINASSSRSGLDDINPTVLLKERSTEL

[7] = molecular target: T1, COX-2; assay: Isothermal titration calorimetry with COX-2; format: binding; conditions: phosphate buffer pH 7.4
[8] = test system: Swiss albino mice; assay: Carrageenan-induced paw inflammation; format: in vivo; conditions: for paw thickness compared to untreated control group: carrageenan, in words
[9] = male wistar rat, 10 mg kg^–1 i.p.
[10] = male, Wistar, rat, serum, ip, 10 mg/kg

Row | Structure (SMILES) | number of flinching in the inflammatory phase compared to control group ([1]; in words) | inhibition in vivo at 10 mg/kg [1] | effect on ionophore-stimulated TXB2 production [5] | TXB2, +calcium ionophore [5] | effect on PGE2 production in LPS-stimulated blood [6] | PGE2, +LPS [6] | other results
1 | O=Cc1cn(-c2nc(N3CCOCC3)nc(N3CCOCC3)n2)c2ccccc12 [Compound 2, 1-(4,6-Dimorpholino-1,3,5-triazin-2-yl)-1H-indole-3-carbaldehyde] | significantly decreased | 57.4% | – | – | – | – | –
2 | O=C1/C(=C\c2cn(-c3nc(N4CCOCC4)nc(N4CCOCC4)n3)c3ccccc23)c2ccccc2N1c1c(Cl)cccc1Cl [Compound 3, (Z)-1-(2,6-Dichlorophenyl)-3-((1-(4,6-dimorpholino-1,3,5-triazin-2-yl)1H-indolyl)methylene)indolin-2-one] | significantly decreased | 55.6% | – | – | – | – | –
3 | O=C1Nc2ccccc2/C1=C/c1cn(-c2nc(N3CCOCC3)nc(N3CCOCC3)n2)c2ccccc12 [Compound 4, (Z)-3-((1-(4,6-Dimorpholino-1,3,5-triazin-2-yl)-1H-indol-3-yl)methylene)indolin-2-one] | significantly decreased | 61.3% | – | – | – | – | –
4 | CN1C(=O)C(=Cc2cn(-c3nc(N4CCOCC4)nc(N4CCOCC4)n3)c3ccccc23)C(=O)N(C)C1=O [Compound 5, 1,3-Dimethyl-5-((1-(4,6-dimorpholino-1,3,5-triazin-2-yl)-1H-indol-3-yl)methylene)pyrimidine-2,4,6(1,3,5H)-trione] | – | – | – | – | – | – | solubility in the assay medium [2]: poor solubility
5 | CC1=NN(c2cccc(Cl)c2)C(=O)/C1=C\c1cn(-c2nc(N3CCOCC3)nc(N3CCOCC3)n2)c2ccccc12 [Compound 6, (4Z)-1-(3-Chlorophenyl)-3-methyl-4-((1-(4,6-dimorpholino-1,3,5-triazin-2-yl)-1H-indol-3-yl)methylene)-1H-pyrazol-5(4H)-one] | significantly decreased | – | did not affect | 1.85 ng/mL | significantly decreased | 0.91 ng/mL | analgesic effect on A23187 pretreatment ([1]; TXA2 stimulator A23187, in words): did not alter; analgesic effect on pretreatment with L-arginine or L-NAME ([1]; given 30 min before compound, in words): did not alter; analgesic effect on pretreatment with substance P ([1]; substance P 30 min before compound, in words): significantly attenuated; Cl/F_obs [3, 9]: 0.0008011 (mg)/(μg/mL)/min; Vz/F_obs [3, 9]: 0.3796 (mg)/(μg/mL); Cmax [3, 10]: 58.5 µg/mL; MRT inf [3, 10]: 8.16 h; Tmax [3, 10]: 3 h; k el [3, 10]: 3.52e-05 s⁻¹; half-life ([3]; male, Wistar, rat, serum, ip, 10 mg/kg, half-life, male wistar rat, 10 mg kg^–1 i.p.): 330 min; half-life ([3]; male, Wistar, rat, serum, ip, 10 mg/kg, t1/2, male wistar rat, 10 mg kg^–1 i.p.): 328 min; mortality or gross behavioral impairment ([4]; 50, 300 and 2000 mg kg^–1, after the 14th day): no mortality or any gross behavioral impairment; maximum tolerable dose ([4]; Swiss albino mice): > 2000 mg kg^–1; tissue histology (liver, kidney, myocardium) ([4]; after 14 days, H and E staining): no significant lesions except for some degree of congestion; toxicity ([4]; dose of 2000 mg kg^–1): did not exhibit toxicity; ΔH COX-2 (ITC) [7]: -40.52 kJ/mol; decrease in paw thickness ([8]; 30 min after carrageenan): 18%; decrease in paw thickness ([8]; 60 min after carrageenan): 14%; paw thickness compared to untreated control group [8]: decrease the paw thickness significantly
6 | O=C1Nc2ccccc2/C1=C/c1cn(-c2nc(N3CCCCC3)nc(N3CCOCC3)n2)c2ccccc12 [Compound 10, (Z)-3-((1-(4-Morpholino-6-(piperidin-1-yl)-1,3,5-triazin-2-yl)-1H-indol-3-yl)methylene)indolin-2-one] | significantly decreased | 54.9% | did not affect | 1.55 ng/mL | significantly decreased | 1.02 ng/mL | –
7 | CC1=NN(c2cccc(Cl)c2)C(=O)/C1=C\c1cn(-c2nc(N3CCCCC3)nc(N3CCOCC3)n2)c2ccccc12 [Compound 12, (Z)-1-(3-Chlorophenyl)-3-methyl-4-((1-(4-morpholino-6-(piperidin-1-yl)-1,3,5-triazin-2-yl)-1H-indol-3-yl)methylene)-1H-pyrazol-5(4H)-one] | significantly decreased | 74.2% | did not affect | 1.75 ng/mL | significantly decreased | 0.95 ng/mL | paw thickness compared to untreated control group [8]: decrease the paw thickness significantly
8 | CC1=NN(c2cccc(Cl)c2)C(=O)/C1=C\c1cn(-c2nc(N3CCCC3)nc(N3CCOCC3)n2)c2ccccc12 [Compound 17, (Z)-1-(3-Chlorophenyl)-3-methyl-4-((1-(4-morpholino-6-(pyrrolidin-1-yl)-1,3,5-triazin-2-yl)-1H-indol-3-yl)methylene)-1H-pyrazol-5(4H)-one] | significantly decreased | – | did not affect | 1.70 ng/mL | significantly decreased | 1.00 ng/mL | –
9 | CC1=NN(c2cccc(Cl)c2)C(=O)/C1=C\c1cn(-c2nc(Cl)nc(N3CCOCC3)n2)c2ccccc12 [Compound 18, (Z)-4-((1-(4-Chloro-6-morpholino-1,3,5-triazin-2-yl)-1H-indol-3-yl)methylene)-1-(3-chlorophenyl)-3-methyl-1H-pyrazol-5(4H)-one] | significantly decreased | 59% | – | – | – | – | –
10 | CC1=NN(c2cccc(Cl)c2)C(=O)/C1=C\c1cn(-c2nc(N3CCCCC3)nc(N3CCCCC3)n2)c2ccccc12 [Compound 22, (Z)-1-(3-Chlorophenyl)-4-((1-(4,6-di(piperidin-1-yl)-1,3,5-triazin-2-yl)-1H-indol-3-yl)methylene)-3-methyl-1H-pyrazol-5(4H)-one] | significantly decreased | 61.9% | – | – | – | – | –
11 | O=C(O)Cc1ccccc1Nc1c(Cl)cccc1Cl [Diclofenac, reference compound] | significantly decreased | – | – | – | – | – | –
12 | COc1ccc2c(c1)c(CC(=O)O)c(C)n2C(=O)c1ccc(Cl)cc1 [Indomethacin, reference compound] | – | – | – | – | – | – | decrease in paw thickness ([8]; 30 min after carrageenan): 30%; decrease in paw thickness ([8]; 60 min after carrageenan): 25%; paw thickness compared to untreated control group [8]: decrease the paw thickness significantly
